{"source": "patent US11917959B2", "about": "“Multi-ear system to enhance monocot plant yield” (Monsanto Technology LLC, priority 2015, dated 2024)", "assay_type_in_all_cases": "in vivo", "key": {"[1]": {"tested_on": "haploid maize populations", "assay": "Doubling efficiency of four germplasms after co-dominant ear induction (Example 3)", "set-up": "DE50: unit not given beside the values", "conditions": "60 mL 2.5% PBZ at V7 or V8", "procedure": "Two F1 hybrid-derived (one male and one female) haploid populations (referred to herein as H1 and H2) and two inbred-derived haploid lines (male Germplasm B and female Germplasm A) were tested in this experiment. Seven days after planting, several dozen seedlings from each group were removed from the soil and subjected to a bulk colchicine-based chromosome doubling treatment as described above. After the chromosome doubling treatment, seedlings were transplanted to soil and tended in a greenhouse at standard maize growing conditions. When the seedlings had reached approximately the V7 or V8 stage (approximately 29 days after doubling under the growing conditions used), the seedlings were subjected to co-dominant ear induction treatment comprising 60 mL of 2.5% PBZ added to the soil surrounding the base of each stem.\nThe seedlings were then tended in standard greenhouse maize growing conditions until they flowered, at which time each plant that produced pollen was self-pollinated and then left undisturbed to await fertilization and kernel production. After approximately 2-3 weeks, ears were harvested and the kernels that formed on them (DH1) were counted to determine doubling efficiencies.\nDoubling efficiencies (DE) were calculated under the different constraints described in the previous example to generate values for DE04, DE20, DE30, and DE50 for each of the four genotypes. Furthermore, the above doubling efficiencies were calculated once by considering only the kernels that formed on the primary ear of each plant (Ear1), once by considering only the kernels that formed on the primary and secondary ear of each plant (Ear2), once by considering only the kernels that formed on the primary, secondary, and tertiary ear of each plant (Ear3), and finally by considering all the kernels that formed on all the ears of each plant (Earall)."}, "[2]": {"tested_on": "maize inbred lines Germplasm A and LH244", "assay": "Co-dominant ear induction in diploid maize inbreds (Example 5)", "conditions": "for Ave. Ears Per Plant / Ave. Total Kernels Per Plant: Treated", "procedure": "Seeds of maize inbred lines Germplasm A and LH244 were planted in soil, germinated, and then transplanted to 10-inch pots after approximately one week, one seedling per pot. The plants were subjected to a co-dominant ear induction treatment at the V8 stage comprising drenching the soil surrounding the roots of each plant with 50 mL of a 2.5% PBZ solution (v/v; 0.4% of active ingredient). The plants were tended in a greenhouse until sexual maturity, then they were self-pollinated. When seed set had completed, the number of co-dominant ears, and the total number of kernels, produced by each plant were counted. Control plants for each germplasm were processed in the same way as the treated groups, except that the control plants were not subjected to the co-dominant ear induction treatment."}, "[3]": {"tested_on": "haploid maize lines (Germplasm A, Germplasm B)", "assay": "Co-dominant ear induction by PBZ soil drench in colchicine-doubled haploid maize (Example 1)", "source_text": "V1-V3 seedlings of two unique F1 hybrid-derived haploid maize lines, derived from: female heterotic group (Germplasm A) or male heterotic group (Germplasm B), were subjected to a bulk colchicine-based chromosome doubling treatment by removing the seedlings from soil or growth media at the V1-V3 growth stage and aligning their stems and wrapping them together along with several wooden rods into bundle a held together by a strip of aluminum foil (approximate foil strip dimensions were 6 in×18 in). The bundled plants were submerged in plant treatment solution comprising 1250 ppm of colchicine in a centrifuge container and then the entire sample was centrifuged at 50 g for 3 min while the shoot apical meristems (SAMs) remained submerged in the plant treatment agent solution.\nFollowing the first centrifugation, the plant treatment solution was decanted and the seedlings subjected to an addition centrifugation at 335 g for 3 min. During the second centrifugation, the rod-wrap bundle supported the seedlings and prevented the SAMs from contacting the reserve treatment agent that was not absorbed by the plant during application of the centrifugal force.\nFollowing the second centrifugation, the plants were removed from the centrifugation container and the rod-wrap bundle and rinsed with water to remove any remaining colchicine solution, and then recovered and tended in a light, humidity, and temperature-controlled greenhouse for several days before being transplanted to a nursery greenhouse. These centrifuge-based treatment methods are described in more detail in International application number PCT/US2015/028955, which is incorporated by reference herein in its entirety, however, standard doubling treatments can also be applied to any of the haploid doubling steps referred to herein.\nFollowing colchicine doubling treatment, 15-20 plants from each germplasm were planted in pots at two different densities; either as single plants per pot (singles), or as two plants per pot (pairs).\nNext, each plant received one of two different doses of PBZ, either 50 mL (low dose) or 60 mL (high dose) of a 2.5% PBZ solution (v/v; 0.4% of active ingredient) in water. These two different doses were applied by soil drench at either the V7 or V8 growth stage, which occurred a total of 23 or 26 days after the seedlings had been subjected to chromosome doubling treatment, respectively. A control group of plants received no treatment solution but were otherwise treated exactly as the experimental groups planted as singles. When pollen shed began at the tassels, the average number of silk-producing ears (i.e. co-dominant ears) were counted for each dosage, germplasm, and treatment time and the results summarized in Table. 1."}, "[4]": {"conditions": "Germplasm A, 50 mL 2.5% PBZ at V8"}}}
{"smiles": "CC(C)(C)[C@@H](O)[C@@H](Cc1ccc(Cl)cc1)n1cncn1", "note": "(relative stereo) [PBZ, (±)-(R*, R*)-beta-((4-chlorophenyl)methyl)-alpha-(1,1,-dimethylethyl)-1H-1,2,4,-triazole-1-ethanol]", "values": [{"measurement": "DE04", "setting": "[1]; Ear1, Control A", "result": 72.9}, {"measurement": "DE20", "setting": "[1]; Ear1, Control A", "result": 60.7}, {"measurement": "DE30", "setting": "[1]; Ear1, Control A", "result": 48.6}, {"measurement": "DE50", "setting": "[1]; Ear1, Control A", "result": 48.6}, {"measurement": "DE04", "setting": "[1]; Ear1, Control B", "result": 64.8}, {"measurement": "DE20", "setting": "[1]; Ear1, Control B", "result": 44.5}, {"measurement": "DE30", "setting": "[1]; Ear1, Control B", "result": 40.5}, {"measurement": "DE50", "setting": "[1]; Ear1, Control B", "result": 32.4}, {"measurement": "DE04", "setting": "[1]; Ear1, Germplasm A", "result": 64.6}, {"measurement": "DE20", "setting": "[1]; Ear1, Germplasm A", "result": 37.4}, {"measurement": "DE30", "setting": "[1]; Ear1, Germplasm A", "result": 30.6}, {"measurement": "DE50", "setting": "[1]; Ear1, Germplasm A", "result": 23.8}, {"measurement": "DE04", "setting": "[1]; Ear1, Germplasm B", "result": 56.7}, {"measurement": "DE20", "setting": "[1]; Ear1, Germplasm B", "result": 40.5}, {"measurement": "DE30", "setting": "[1]; Ear1, Germplasm B", "result": 40.5}, {"measurement": "DE50", "setting": "[1]; Ear1, Germplasm B", "result": 40.5}, {"measurement": "DE04", "setting": "[1]; Earall, Control A", "result": 81}, {"measurement": "DE20", "setting": "[1]; Earall, Control A", "result": 76.9}, {"measurement": "DE30", "setting": "[1]; Earall, Control A", "result": 76.9}, {"measurement": "DE50", "setting": "[1]; Earall, Control A", "result": 64.8}, {"measurement": "DE04", "setting": "[1]; Earall, Control B", "result": 68.8}, {"measurement": "DE20", "setting": "[1]; Earall, Control B", "result": 56.7}, {"measurement": "DE30", "setting": "[1]; Earall, Control B", "result": 56.7}, {"measurement": "DE50", "setting": "[1]; Earall, Control B", "result": 44.5}, {"measurement": "DE04", "setting": "[1]; Earall, Germplasm A", "result": 81.6}, {"measurement": "DE20", "setting": "[1]; Earall, Germplasm A", "result": 71.4}, {"measurement": "DE30", "setting": "[1]; Earall, Germplasm A", "result": 71.4}, {"measurement": "DE50", "setting": "[1]; Earall, Germplasm A", "result": 64.6}, {"measurement": "DE04", "setting": "[1]; Earall, Germplasm B", "result": 68.8}, {"measurement": "DE20", "setting": "[1]; Earall, Germplasm B", "result": 48.6}, {"measurement": "DE30", "setting": "[1]; Earall, Germplasm B", "result": 44.5}, {"measurement": "DE50", "setting": "[1]; Earall, Germplasm B", "result": 44.5}, {"measurement": "Ave. Ears Per Plant", "setting": "[2]; [4]", "result": 8}, {"measurement": "Ave. Total Kernels Per Plant", "setting": "[2]; [4]", "result": 1677}, {"measurement": "Ave. Ears Per Plant", "setting": "[2]; LH244, 50 mL 2.5% PBZ at V8", "result": 5.1}, {"measurement": "Ave. Total Kernels Per Plant", "setting": "[2]; LH244, 50 mL 2.5% PBZ at V8", "result": 1126}, {"measurement": "average total kernels per plant and average ears per plant, treated vs control", "setting": "[2]; both germplasms", "result": "more than doubling"}, {"measurement": "number of co-dominant ears formed per plant", "setting": "[3]; V7, Germplasm A, pairs, high dose (60 mL 2.5% PBZ)", "result": 3.4}, {"measurement": "number of co-dominant ears formed per plant", "setting": "[3]; V7, Germplasm A, pairs, low dose (50 mL 2.5% PBZ)", "result": 3}, {"measurement": "number of co-dominant ears formed per plant", "setting": "[3]; V7, Germplasm A, singles, high dose (60 mL 2.5% PBZ)", "result": 3.9}, {"measurement": "number of co-dominant ears formed per plant", "setting": "[3]; V7, Germplasm A, singles, low dose (50 mL 2.5% PBZ)", "result": 3.4}, {"measurement": "number of co-dominant ears formed per plant", "setting": "[3]; V7, Germplasm B, pairs, high dose (60 mL 2.5% PBZ)", "result": 1.5}, {"measurement": "number of co-dominant ears formed per plant", "setting": "[3]; V7, Germplasm B, pairs, low dose (50 mL 2.5% PBZ)", "result": 1.5}, {"measurement": "number of co-dominant ears formed per plant", "setting": "[3]; V7, Germplasm B, singles, high dose (60 mL 2.5% PBZ)", "result": 3.3}, {"measurement": "number of co-dominant ears formed per plant", "setting": "[3]; V7, Germplasm B, singles, low dose (50 mL 2.5% PBZ)", "result": 2.7}, {"measurement": "number of co-dominant ears formed per plant", "setting": "[3]; V8, Germplasm A, pairs, high dose (60 mL 2.5% PBZ)", "result": 2.2}, {"measurement": "number of co-dominant ears formed per plant", "setting": "[3]; V8, Germplasm A, pairs, low dose (50 mL 2.5% PBZ)", "result": 2.3}, {"measurement": "number of co-dominant ears formed per plant", "setting": "[3]; V8, Germplasm A, singles, high dose (60 mL 2.5% PBZ)", "result": 3.5}, {"measurement": "number of co-dominant ears formed per plant", "setting": "[3]; V8, Germplasm A, singles, low dose (50 mL 2.5% PBZ)", "result": 2.3}, {"measurement": "number of co-dominant ears formed per plant", "setting": "[3]; V8, Germplasm B, pairs, high dose (60 mL 2.5% PBZ)", "result": 1.5}, {"measurement": "number of co-dominant ears formed per plant", "setting": "[3]; V8, Germplasm B, pairs, low dose (50 mL 2.5% PBZ)", "result": 1.5}, {"measurement": "number of co-dominant ears formed per plant", "setting": "[3]; V8, Germplasm B, singles, high dose (60 mL 2.5% PBZ)", "result": 2.2}, {"measurement": "number of co-dominant ears formed per plant", "setting": "[3]; V8, Germplasm B, singles, low dose (50 mL 2.5% PBZ)", "result": 2.3}, {"measurement": "average EP (ear per plant), high dosage greater than low dosage by", "setting": "[3]; all plants", "result": 0.31}, {"measurement": "average EP, high-dose higher than low-dose by", "setting": "[3]; singles only", "result": 0.55}, {"measurement": "minimum increase over control plants", "setting": "[3]; singles, low dose", "result": "≥ 1.2", "unit": "EP"}]}
